Measured values reported in ChEMBL document CHEMBL5331085 (Eur J Med Chem, 2023).
Values after ≈ are worked out from the molar mass of the structure shown. Active and inactive are the calls of the source. No cut-off for these calls is given here.

How the values were obtained:
Staphylococcus aureus [1] = test: Antimicrobial activity against Staphylococcus aureus; format: functional
[2] = test system: Stenotrophomonas maltophilia; test: Antimicrobial activity against Stenotrophomonas maltophilia ATCC 17808 incubated for 16 to 20 hrs by CLSI based broth dilution method; format: functional; conditions: time 16-20 hrs
Enterococcus faecium = test: Antimicrobial activity against Enterococcus faecium ATCC 29212 incubated for 16 to 20 hrs by CLSI based broth dilution method; format: functional
Escherichia coli = test: Antimicrobial activity against Escherichia coli ATCC 25922 incubated for 16 to 20 hrs by CLSI based broth dilution method; format: functional; conditions: time 16-20 hrs
Staphylococcus aureus [3] = test: Antimicrobial activity against Staphylococcus aureus ATCC 29213 incubated for 16 to 20 hrs by CLSI based broth dilution method; format: functional; conditions: time 16-20 hrs
Erythrocyte = test: (§1) Hemolytic activity in sheep erythrocytes incubated for 1 hr by absorbance based analysis; format: toxicity, cell-based, Ovis aries; conditions: erythrocyte, 1 h
[4] = as §1; format: toxicity, cell-based, Ovis aries, Erythrocyte; conditions: sheep erythrocytes
Cell membrane = test: Induction of membrane depolarization in Staphylococcus aureus ATCC 29213 assessed as increase in fluorescence intensity at 16 ug/ml treated for 6 mins prior to compound addition and further measured for 20 mins by DiSC3-5 dye based fluorescence analysis; conditions: dose 16.0 µg/ml
Staphylococcus aureus [5] = test: Bactericidal activity against Staphylococcus aureus ATCC 29213 assessed as fold increase in MIC incubated for 16 to 20 hrs in presence of 50% serum by broth dilution method relative to control; format: functional; conditions: time 16-20 hrs
Staphylococcus aureus [6] = test: Induction of ROS accumulation in Staphylococcus aureus ATCC 29213 at 1 ug/ml incubated for 30 mins by DCF-DA staining based fluorescence analysis; format: functional, organism-based; conditions: dose 1.0 µg/ml
Staphylococcus aureus [7] = test: Induction of ROS accumulation in Staphylococcus aureus ATCC 29213 at 1 ug/ml incubated for 30 mins in presence of N-acetyl-L-cysteine by DCF-DA staining based fluorescence analysis; format: functional, organism-based; conditions: dose 1.0 µg/ml
[8] = Cytotoxicity against HUVEC cells assessed as inhibition of cell growth incubated for 72 hrs by CCK-8 assay; format: toxicity, cell-based; conditions: human
Staphylococcus aureus [9] = test: Induction of ROS accumulation in Staphylococcus aureus ATCC 29213 at 0.25 to 0.5 ug/ml incubated for 30 mins by DCF-DA staining based fluorescence analysis; format: functional, organism-based; conditions: dose 0.25-0.5 µg/ml
Staphylococcus aureus [10] = test: Bactericidal activity against Staphylococcus aureus ATCC 29213 assessed as fold increase in MIC incubated for 16 to 20 hrs in presence of 50% plasma by broth dilution method relative to control; format: functional; conditions: time 16-20 hrs
[11] = Cytotoxicity against human BGC cells assessed as inhibition of cell growth incubated for 72 hrs by CCK-8 assay; format: toxicity, cell-based
[12] = Cytotoxicity against human WPMY-1 cells assessed as inhibition of cell growth incubated for 72 hrs by CCK-8 assay; format: toxicity, cell-based
[13] = Induction of drug resistance in Staphylococcus aureus ATCC 29213 assessed as test compound MIC at sub-MIC measured after 20 days (reference value: 1 ug/ml); format: functional; conditions: ATCC 29213, 480 h, time 20 day
[14] = Stenotrophomonas maltophilia, ATCC 17808, read-out: MIC
[15] = Enterococcus faecium, ATCC 29212, time 16-20 hrs, read-out: MIC

CCCCCCN(CCCOc1ccc(-c2ccc(OCCCN(CCCCCC)C(=O)[C@@H](N)CCCCN)cc2)cc1)C(=O)[C@@H](N)CCCCN.Cl.Cl.Cl.Cl
MIC (Staphylococcus aureus [1]): 1 µg/mL

CCCCCCCCCC[N+](C)(C)CCCOc1ccc2ccccc2c1-c1c(OCCC[N+](C)(C)CCCCCCCCCC)ccc2ccccc12.[Br-].[Br-]
MIC [2, 14]: 16 µg/mL
MIC [2]: 16 µg/mL
MIC (Enterococcus faecium; [15]): 16 µg/mL
MIC (Enterococcus faecium; time 16-20 hrs): 16 µg/mL
MIC (Escherichia coli; Escherichia coli, ATCC 25922, read-out: MIC): 16 µg/mL
MIC (Escherichia coli): 16 µg/mL
MIC (Staphylococcus aureus [3]; Staphylococcus aureus, ATCC 29213, read-out: MIC): 16 µg/mL
MIC (Staphylococcus aureus [3]): 16 µg/mL
HC50 (Erythrocyte): 371 µg/mL
HC50 at 1 h [4]: 228 µg/mL

CC[C@H](C)[C@H](NC(=O)CN)C(=O)NCC(=O)N[C@@H](C)C(=O)N[C@H](C(=O)N[C@@H](CC(C)C)C(=O)N[C@@H](CCCCN)C(=O)N[C@H](C(=O)N[C@@H](CC(C)C)C(=O)N[C@H](C(=O)N[C@H](C(=O)NCC(=O)N[C@@H](CC(C)C)C(=O)N1CCC[C@H]1C(=O)N[C@@H](C)C(=O)N[C@@H](CC(C)C)C(=O)N[C@H](C(=O)N[C@@H](CO)C(=O)N[C@@H](Cc1c[nH]c2ccccc12)C(=O)N[C@H](C(=O)N[C@@H](CCCCN)C(=O)N[C@@H](CCCNC(=N)N)C(=O)N[C@@H](CCCCN)C(=O)N[C@@H](CCCNC(=N)N)C(=O)N[C@@H](CCC(N)=O)C(=O)N[C@@H](CCC(N)=O)C(N)=O)[C@@H](C)CC)[C@@H](C)CC)[C@@H](C)O)[C@@H](C)O)C(C)C)C(C)C [MELITTIN]
MIC [2, 14]: 8 µg/mL (≈ 2.81 µM)
Activity (Cell membrane): Active
MIC (Enterococcus faecium; [15]): 2 µg/mL (≈ 0.703 µM)
fold change (FC) (Staphylococcus aureus [5]): >32
Activity (Staphylococcus aureus [6]): Active
Activity (Staphylococcus aureus [7]): inactive
IC50 at 72 h [8]: 5.8 µg/mL (≈ 2.04 µM)
Activity (Staphylococcus aureus [9]): inactive
fold change (FC) (Staphylococcus aureus [10]): >32

C=C[C@]1(C)C[C@@H](OC(=O)CS[C@@H]2C[C@H]3CC[C@@H](C2)N3C)[C@]2(C)[C@H](C)CC[C@]3(CCC(=O)[C@H]32)[C@@H](C)[C@@H]1O [RETAPAMULIN]
IC50 at 72 h [8]: 25.5 µg/mL (≈ 49.2 µM)
IC50 at 72 h [11]: 16 µg/mL (≈ 30.9 µM)
IC50 at 72 h [12]: 13.9 µg/mL (≈ 26.8 µM)

CCCCCCN(CCCOc1ccccc1-c1ccccc1OCCCN(CCCCCC)C(=O)[C@@H](N)CCCCN)C(=O)[C@@H](N)CCCCN.Cl.Cl.Cl.Cl
MIC (Staphylococcus aureus [1]): 0.5 µg/mL

CCn1cc(C(=O)O)c(=O)c2cc(F)c(N3CCNCC3)cc21 [NORFLOXACIN]
MIC [13]: 64 µg/mL
